Measured values as given in PMC2680759, “Non-Invasive Molecular Imaging of Fibrosis Using a Collagen-Targeted Peptidomimetic of the Platelet Collagen Receptor Glycoprotein VI” (PLoS ONE, 2009).
Bridges are numbered along the chain shown (N, C = ends). Where no end group is shown, it is not given here.

Tests used:
Details in all cases: biotin-peptide 50 µg/mL, microtitration plate, n = 3
fibronectin = fibronectin (Homo sapiens, UniProt P02751); assay: Solid phase assay, fibronectin; format: binding
Chain of fibronectin (P02751 32-2477): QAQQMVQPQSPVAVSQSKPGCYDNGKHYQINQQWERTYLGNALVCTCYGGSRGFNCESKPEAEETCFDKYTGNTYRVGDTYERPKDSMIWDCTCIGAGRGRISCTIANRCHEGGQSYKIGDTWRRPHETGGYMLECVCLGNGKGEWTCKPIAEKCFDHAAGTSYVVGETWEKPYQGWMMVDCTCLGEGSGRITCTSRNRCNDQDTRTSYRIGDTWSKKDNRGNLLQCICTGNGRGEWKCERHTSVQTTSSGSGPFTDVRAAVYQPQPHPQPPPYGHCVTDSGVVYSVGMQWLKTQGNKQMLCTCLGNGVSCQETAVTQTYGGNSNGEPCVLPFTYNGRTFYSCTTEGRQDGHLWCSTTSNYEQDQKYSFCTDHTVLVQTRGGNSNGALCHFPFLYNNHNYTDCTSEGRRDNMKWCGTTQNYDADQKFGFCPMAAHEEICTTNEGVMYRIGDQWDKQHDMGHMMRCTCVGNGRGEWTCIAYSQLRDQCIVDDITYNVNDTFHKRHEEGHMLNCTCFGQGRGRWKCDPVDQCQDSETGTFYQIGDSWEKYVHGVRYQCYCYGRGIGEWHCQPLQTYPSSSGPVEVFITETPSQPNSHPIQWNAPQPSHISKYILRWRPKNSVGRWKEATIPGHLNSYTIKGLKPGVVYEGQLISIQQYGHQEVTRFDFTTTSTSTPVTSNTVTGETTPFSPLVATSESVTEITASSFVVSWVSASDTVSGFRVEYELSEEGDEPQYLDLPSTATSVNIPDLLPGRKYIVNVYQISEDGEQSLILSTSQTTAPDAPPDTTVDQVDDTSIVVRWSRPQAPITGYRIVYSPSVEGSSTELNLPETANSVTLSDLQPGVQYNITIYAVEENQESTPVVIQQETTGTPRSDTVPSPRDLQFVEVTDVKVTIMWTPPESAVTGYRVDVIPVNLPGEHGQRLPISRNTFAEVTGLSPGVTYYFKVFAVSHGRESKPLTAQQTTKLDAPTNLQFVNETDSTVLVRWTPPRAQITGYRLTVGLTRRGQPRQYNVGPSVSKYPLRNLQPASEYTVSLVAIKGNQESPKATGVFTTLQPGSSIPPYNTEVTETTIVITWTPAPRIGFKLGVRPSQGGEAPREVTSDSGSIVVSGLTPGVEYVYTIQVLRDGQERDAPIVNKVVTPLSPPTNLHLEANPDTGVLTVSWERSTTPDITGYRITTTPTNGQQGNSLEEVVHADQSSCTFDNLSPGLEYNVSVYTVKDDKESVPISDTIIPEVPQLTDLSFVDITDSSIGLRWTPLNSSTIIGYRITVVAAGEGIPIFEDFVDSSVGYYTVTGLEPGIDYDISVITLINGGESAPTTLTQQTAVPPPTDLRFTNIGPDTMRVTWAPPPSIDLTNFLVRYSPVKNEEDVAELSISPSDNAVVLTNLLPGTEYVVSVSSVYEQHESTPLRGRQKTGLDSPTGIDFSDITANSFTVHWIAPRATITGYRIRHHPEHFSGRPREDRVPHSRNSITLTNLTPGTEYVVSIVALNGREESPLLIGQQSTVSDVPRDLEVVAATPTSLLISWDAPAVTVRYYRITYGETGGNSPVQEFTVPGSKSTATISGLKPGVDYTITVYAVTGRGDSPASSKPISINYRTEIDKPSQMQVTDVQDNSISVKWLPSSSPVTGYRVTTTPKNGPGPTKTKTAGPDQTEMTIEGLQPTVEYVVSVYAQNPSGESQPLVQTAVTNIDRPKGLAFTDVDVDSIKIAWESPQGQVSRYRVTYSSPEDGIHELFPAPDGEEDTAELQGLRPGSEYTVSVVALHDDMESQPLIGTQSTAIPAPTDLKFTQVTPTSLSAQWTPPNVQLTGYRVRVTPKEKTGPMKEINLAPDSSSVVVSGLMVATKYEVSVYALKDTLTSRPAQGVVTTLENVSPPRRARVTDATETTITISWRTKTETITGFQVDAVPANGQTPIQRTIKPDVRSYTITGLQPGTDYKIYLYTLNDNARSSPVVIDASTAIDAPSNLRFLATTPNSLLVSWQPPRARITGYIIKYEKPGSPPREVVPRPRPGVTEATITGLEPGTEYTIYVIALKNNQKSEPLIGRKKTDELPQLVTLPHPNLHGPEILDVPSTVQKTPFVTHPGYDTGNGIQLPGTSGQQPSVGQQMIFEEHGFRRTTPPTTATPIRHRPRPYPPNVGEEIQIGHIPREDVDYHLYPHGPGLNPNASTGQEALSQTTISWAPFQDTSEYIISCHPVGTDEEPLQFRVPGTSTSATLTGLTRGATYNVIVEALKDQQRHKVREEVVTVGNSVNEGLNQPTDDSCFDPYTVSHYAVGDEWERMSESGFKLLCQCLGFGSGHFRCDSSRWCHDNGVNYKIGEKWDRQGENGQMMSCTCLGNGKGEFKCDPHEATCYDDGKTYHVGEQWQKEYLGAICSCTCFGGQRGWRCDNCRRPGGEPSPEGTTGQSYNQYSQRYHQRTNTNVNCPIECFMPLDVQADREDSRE
Protocol: (§1) Biotin-peptides (50 µg.mL^−1) were incubated on microtitration wells, coated with 1 µg of type-I collagen, convulxin, collagen related peptides, bovine fibrinogen, human fibronectin, rat vitronectin, murine laminin or bovine serum albumin. Bound peptides were detected using HRP-coupled extravidin and the HRP substrate O-phenyl-dianisidine.

vitronectin = target: T1, vitronectin (Rattus norvegicus, UniProt F7F5X0); assay: Solid phase assay, vitronectin; format: binding
T1 sequence (F7F5X0 20-490): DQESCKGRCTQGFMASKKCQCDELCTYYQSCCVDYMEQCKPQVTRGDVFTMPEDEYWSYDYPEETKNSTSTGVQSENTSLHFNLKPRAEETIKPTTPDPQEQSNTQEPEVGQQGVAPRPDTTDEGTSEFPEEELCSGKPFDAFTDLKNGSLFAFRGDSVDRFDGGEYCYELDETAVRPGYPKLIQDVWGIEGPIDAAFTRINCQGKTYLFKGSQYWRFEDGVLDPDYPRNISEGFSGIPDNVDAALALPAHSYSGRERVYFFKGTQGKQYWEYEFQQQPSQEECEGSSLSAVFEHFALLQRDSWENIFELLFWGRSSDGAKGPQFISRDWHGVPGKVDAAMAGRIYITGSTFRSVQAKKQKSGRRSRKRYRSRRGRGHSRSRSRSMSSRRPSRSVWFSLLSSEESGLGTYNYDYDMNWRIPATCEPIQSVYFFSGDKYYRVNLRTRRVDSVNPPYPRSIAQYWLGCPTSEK
Protocol: as §1

laminin = laminin (Mus musculus, UniProt P02468+P02469+P19137); assay: Solid phase assay, laminin; format: binding, murine
Protocol: as §1

type III collagen = target: T2, type III collagen (Homo sapiens, UniProt P02461); assay: Solid phase assay, type III collagen; format: binding
T2 sequence (P02461 154-1221 limits assumed): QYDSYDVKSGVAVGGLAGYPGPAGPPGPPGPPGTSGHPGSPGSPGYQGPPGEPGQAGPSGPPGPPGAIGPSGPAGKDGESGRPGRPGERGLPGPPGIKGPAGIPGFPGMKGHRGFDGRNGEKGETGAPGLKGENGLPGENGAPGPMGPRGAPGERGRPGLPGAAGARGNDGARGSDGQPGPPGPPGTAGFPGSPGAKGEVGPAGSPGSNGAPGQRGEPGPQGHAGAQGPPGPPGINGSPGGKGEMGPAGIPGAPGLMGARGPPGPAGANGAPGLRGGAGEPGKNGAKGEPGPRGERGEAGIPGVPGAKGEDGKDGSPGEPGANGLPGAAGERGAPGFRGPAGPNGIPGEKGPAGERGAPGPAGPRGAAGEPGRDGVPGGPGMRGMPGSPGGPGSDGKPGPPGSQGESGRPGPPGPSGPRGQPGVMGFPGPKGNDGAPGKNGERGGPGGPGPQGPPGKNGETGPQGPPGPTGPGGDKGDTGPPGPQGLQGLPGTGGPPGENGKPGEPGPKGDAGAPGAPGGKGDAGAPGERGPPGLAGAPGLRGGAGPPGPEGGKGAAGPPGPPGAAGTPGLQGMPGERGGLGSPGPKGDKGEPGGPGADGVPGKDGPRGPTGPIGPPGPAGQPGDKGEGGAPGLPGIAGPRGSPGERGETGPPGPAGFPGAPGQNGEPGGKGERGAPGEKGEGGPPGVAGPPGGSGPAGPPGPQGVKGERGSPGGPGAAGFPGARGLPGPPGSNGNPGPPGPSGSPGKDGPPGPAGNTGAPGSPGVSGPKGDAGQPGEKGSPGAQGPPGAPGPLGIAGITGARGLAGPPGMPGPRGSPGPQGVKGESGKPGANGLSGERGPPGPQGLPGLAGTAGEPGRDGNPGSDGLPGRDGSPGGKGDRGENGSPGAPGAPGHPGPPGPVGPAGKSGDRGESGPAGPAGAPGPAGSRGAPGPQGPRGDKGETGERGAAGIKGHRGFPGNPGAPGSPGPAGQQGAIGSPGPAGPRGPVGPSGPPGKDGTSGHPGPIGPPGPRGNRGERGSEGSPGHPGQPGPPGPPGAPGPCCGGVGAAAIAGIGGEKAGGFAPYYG

| Binding to immobilized fibronectin (fibronectin) | Binding to immobilized vitronectin (vitronectin) | Binding to immobilized laminin (laminin) | Binding to immobilized type III collagen (type III collagen) | Molecule |
| --- | --- | --- | --- | --- |
| either to be weak or not to occur at all | either to be weak or not to occur at all | consistently bound | bound | CSCC[C@@H]1NC(=O)[C@H](C(C)C)NC(=O)[C@H](CCCNC(=N)N)NC(=O)CNC(=O)[C@@H]2CCCN2C(=O)[C@@H](NC(=O)CNC(=O)[C@H](CO)NC(=O)CNC(=O)[C@H](CO)NC(=O)CCCC[C@@H]2SC[C@@H]3NC(=O)N[C@@H]32)CSSC[C@@H](C(N)=O)NC(=O)[C@@H]2CCCN2C(=O)CNC(=O)[C@H](CCC(=O)O)NC(=O)[C@H](CC(=O)O)NC(=O)[C@H](CC(=O)O)NC(=O)CNC(=O)[C@H](CC(C)C)NC(=O)[C@H](Cc2c[nH]cn2)NC(=O)[C@H](CC(C)C)NC(=O)CNC(=O)[C@H](Cc2c[nH]cn2)NC1=O [collagelin] |
| did not bind | did not bind | did not bind | did not bind | SGSGCGPQGARGLTGASAGGPC (disulfide 5-22 (inferred)) [reference compound] |
